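Assay format: 96-well plates, 48-hour exposure. GI50 is the concentration that inhibits growth by half.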 Calls of active or inactive are those of the source. No stated cut-off is given here; in the data, active = GI50 up to about 1.1 µM and inactive = higher.
What was measured:
Experiment in all cases: NCI anticancer screen, dose series, 48 h
DLD-1 = test system: DLD-1
LXFL 529 = test system: LXFL 529
DMS-114 = test system: DMS-114
KM-20L2 = test system: KM-20L2
HOP-18 = test system: HOP-18
XF498 = test system: XF498
SNB-78 = test system: SNB-78
M19-MEL = test system: M19-MEL
RXF 631 = test system: RXF 631

Cc1cc2c(cc1Br)C1(C)CCC(C)C1(C)O2 (stereo not drawn)
GI50 (DLD-1): 48.8 µM (inactive) | GI50 (LXFL 529): 57.7 µM (inactive) | GI50 (DMS-114): 22 µM (inactive) | GI50 (KM-20L2): 32.3 µM (inactive) | GI50 (HOP-18): 30.1 µM (inactive) | GI50 (XF498): 22.5 µM (inactive) | GI50 (SNB-78): 24 µM (inactive) | GI50 (M19-MEL): 25.3 µM (inactive)

COc1c2nc(CCl)[nH]c(=O)c2c(OC)c2nc(CCl)[nH]c(=O)c12
GI50 (DLD-1): > 100 µM (inactive) | GI50 (LXFL 529): > 100 µM (inactive) | GI50 (DMS-114): > 100 µM (inactive) | GI50 (KM-20L2): > 100 µM (inactive) | GI50 (HOP-18): > 100 µM (inactive) | GI50 (XF498): > 100 µM (inactive) | GI50 (SNB-78): > 100 µM (inactive) | GI50 (M19-MEL): > 100 µM (inactive)

COc1cc2c(cc1OC)-c1cc3cc(OC)c(OC)cc3n1CC2
GI50 (DLD-1): 58.2 µM (inactive) | GI50 (LXFL 529): 54.8 µM (inactive) | GI50 (DMS-114): 72.3 µM (inactive) | GI50 (KM-20L2): 21.6 µM (inactive) | GI50 (XF498): 18.9 µM (inactive) | GI50 (SNB-78): 36.8 µM (inactive) | GI50 (M19-MEL): > 100 µM (inactive)

CCCCCCC(=O)C/C(CCC(=O)N(Cc1ccccc1)Cc1ccccc1)=N\Nc1ccc([N+](=O)[O-])cc1[N+](=O)[O-]
GI50 (DLD-1): 42 µM (inactive) | GI50 (LXFL 529): 31 µM (inactive) | GI50 (DMS-114): 17 µM (inactive) | GI50 (KM-20L2): 56.8 µM (inactive) | GI50 (HOP-18): 55.1 µM (inactive) | GI50 (SNB-78): > 100 µM (inactive) | GI50 (M19-MEL): 55.7 µM (inactive)

COc1ccc2c3c(coc13)C(CCC(=O)O)CC2 (stereo not drawn)
GI50 (DLD-1): > 100 µM (inactive) | GI50 (LXFL 529): > 100 µM (inactive) | GI50 (RXF 631): > 100 µM (inactive) | GI50 (DMS-114): > 100 µM (inactive) | GI50 (KM-20L2): > 100 µM (inactive) | GI50 (HOP-18): 88.5 µM (inactive) | GI50 (XF498): 48.3 µM (inactive) | GI50 (SNB-78): > 100 µM (inactive) | GI50 (M19-MEL): > 100 µM (inactive)

CNC(=O)CN(CC(=O)NC)C(=O)NC
GI50 (DLD-1): > 100 µM (inactive) | GI50 (LXFL 529): > 100 µM (inactive) | GI50 (KM-20L2): > 100 µM (inactive) | GI50 (XF498): > 100 µM (inactive) | GI50 (SNB-78): > 100 µM (inactive) | GI50 (M19-MEL): > 100 µM (inactive)

COC(=O)c1cc(O)ccc1NC(=O)c1ccc(O)cc1
GI50 (DLD-1): > 100 µM (inactive) | GI50 (LXFL 529): > 100 µM (inactive) | GI50 (RXF 631): > 100 µM (inactive) | GI50 (DMS-114): > 100 µM (inactive) | GI50 (KM-20L2): > 100 µM (inactive) | GI50 (HOP-18): > 100 µM (inactive) | GI50 (XF498): > 100 µM (inactive) | GI50 (SNB-78): > 100 µM (inactive) | GI50 (M19-MEL): > 100 µM (inactive)

COC(=O)N1CCc2c(nc(N(C)CCO)[nH]c2=O)C1
GI50 (DLD-1): > 100 µM (inactive) | GI50 (LXFL 529): > 100 µM (inactive) | GI50 (DMS-114): > 100 µM (inactive) | GI50 (KM-20L2): > 100 µM (inactive) | GI50 (HOP-18): > 100 µM (inactive) | GI50 (XF498): > 100 µM (inactive) | GI50 (SNB-78): > 100 µM (inactive) | GI50 (M19-MEL): > 100 µM (inactive)

CN/N=C(\C)C(CN1CCCCC1)C(C1=C(O)c2ccccc2OC1)c1ccccc1 (stereo not drawn)
GI50 (LXFL 529): > 100 µM (inactive) | GI50 (RXF 631): > 100 µM (inactive) | GI50 (DMS-114): 79.3 µM (inactive) | GI50 (KM-20L2): > 100 µM (inactive) | GI50 (XF498): > 100 µM (inactive) | GI50 (SNB-78): > 100 µM (inactive) | GI50 (M19-MEL): > 100 µM (inactive)

O=C1c2ccoc2C(=O)c2oc(=O)ccc21
GI50 (DLD-1): 18.7 µM (inactive) | GI50 (LXFL 529): 6.75 µM (inactive) | GI50 (DMS-114): 2.05 µM (inactive) | GI50 (KM-20L2): > 46.1 µM (inactive) | GI50 (HOP-18): 21.6 µM (inactive) | GI50 (XF498): 25.3 µM (inactive) | GI50 (SNB-78): 12.2 µM (inactive) | GI50 (M19-MEL): 1.56 µM (inactive)

CCC12C=CCN3CC[C@]4(C(=C(C(=O)OC)[C@@H]1Nc1ccn(C5OC(COC(C)=O)C(OC(C)=O)C5OC(C)=O)c(=O)n1)Nc1ccccc14)C32 (stereo partly drawn)
GI50 (DLD-1): 4.53 µM (inactive) | GI50 (LXFL 529): 4.42 µM (inactive) | GI50 (KM-20L2): 4.66 µM (inactive) | GI50 (HOP-18): 6.92 µM (inactive) | GI50 (XF498): 5.74 µM (inactive) | GI50 (SNB-78): 5.42 µM (inactive) | GI50 (M19-MEL): 3.98 µM (inactive)

CC(C)(Oc1ccc(/C=C/C(=O)c2ccc(Cl)cc2)cc1)C(=O)Nc1c(Cl)cccc1Cl
GI50 (DLD-1): 13.7 µM (inactive) | GI50 (LXFL 529): 13.9 µM (inactive) | GI50 (RXF 631): 19.5 µM (inactive) | GI50 (DMS-114): 11.6 µM (inactive) | GI50 (KM-20L2): 20.3 µM (inactive) | GI50 (HOP-18): 80.4 µM (inactive) | GI50 (XF498): 17.7 µM (inactive) | GI50 (M19-MEL): 14.1 µM (inactive)

CC(C)C(=O)NS(=O)(=O)c1ccccc1
GI50 (DLD-1): > 100 µM (inactive) | GI50 (LXFL 529): > 100 µM (inactive) | GI50 (RXF 631): > 100 µM (inactive) | GI50 (DMS-114): > 100 µM (inactive) | GI50 (KM-20L2): > 100 µM (inactive) | GI50 (HOP-18): > 100 µM (inactive) | GI50 (XF498): > 100 µM (inactive) | GI50 (SNB-78): > 100 µM (inactive) | GI50 (M19-MEL): > 100 µM (inactive)

COC(=O)C1=C(C(=O)OC)SC(=CC#CC=C2SC(C(=O)OC)=C(C(=O)OC)S2)S1
GI50 (DLD-1): 14.1 µM (inactive) | GI50 (LXFL 529): 14.3 µM (inactive) | GI50 (DMS-114): 35.2 µM (inactive) | GI50 (KM-20L2): 11.9 µM (inactive) | GI50 (HOP-18): 8.87 µM (inactive) | GI50 (XF498): 4.53 µM (inactive) | GI50 (SNB-78): 12.2 µM (inactive) | GI50 (M19-MEL): 40.5 µM (inactive)

CC(C)OP(=O)(NC(=S)c1ccccc1)OC(C)C
GI50 (DLD-1): > 100 µM (inactive) | GI50 (LXFL 529): 57.7 µM (inactive) | GI50 (DMS-114): 70.8 µM (inactive) | GI50 (KM-20L2): > 100 µM (inactive) | GI50 (XF498): > 100 µM (inactive) | GI50 (SNB-78): > 100 µM (inactive) | GI50 (M19-MEL): > 100 µM (inactive)

N#Cc1c(-c2ccco2)cc(-c2ccccc2)nc1O
GI50 (DLD-1): > 100 µM (inactive) | GI50 (LXFL 529): > 100 µM (inactive) | GI50 (RXF 631): > 100 µM (inactive) | GI50 (KM-20L2): > 100 µM (inactive) | GI50 (SNB-78): > 100 µM (inactive) | GI50 (M19-MEL): > 100 µM (inactive)

COc1cc(Cn2c(=S)ss/c2=N\C(=S)N(C)C)cc(OC)c1OC
GI50 (DLD-1): 6.31 µM (inactive) | GI50 (LXFL 529): 6.37 µM (inactive) | GI50 (RXF 631): 4.25 µM (inactive) | GI50 (DMS-114): 2.93 µM (inactive) | GI50 (KM-20L2): 4.68 µM (inactive) | GI50 (HOP-18): > 92 µM (inactive) | GI50 (SNB-78): > 100 µM (inactive) | GI50 (M19-MEL): 4.11 µM (inactive)

CC1(C)c2ccccc2N2O[C@@H]3C(=O)N(c4ccccc4)C(=O)[C@@H]3C21c1ccccc1 (stereo partly drawn)
GI50 (DLD-1): > 100 µM (inactive) | GI50 (LXFL 529): > 100 µM (inactive) | GI50 (DMS-114): > 100 µM (inactive) | GI50 (XF498): > 100 µM (inactive) | GI50 (SNB-78): > 100 µM (inactive) | GI50 (M19-MEL): > 100 µM (inactive)

CCOC1c2nc3ccccc3nc2-c2ccccc2N1C(C)=O (stereo not drawn)
GI50 (DLD-1): > 100 µM (inactive) | GI50 (LXFL 529): 70.6 µM (inactive) | GI50 (RXF 631): 74.5 µM (inactive) | GI50 (DMS-114): > 100 µM (inactive) | GI50 (KM-20L2): > 100 µM (inactive) | GI50 (HOP-18): 51.6 µM (inactive) | GI50 (XF498): > 100 µM (inactive) | GI50 (SNB-78): > 100 µM (inactive) | GI50 (M19-MEL): > 100 µM (inactive)

CC(C)c1cccc(C(C)C)c1NC(=S)NN=C1C=C(C(C)(C)C)C(=O)C(C(C)(C)C)=C1
GI50 (DLD-1): 36.4 µM (inactive) | GI50 (LXFL 529): 32.3 µM (inactive) | GI50 (RXF 631): 9.95 µM (inactive) | GI50 (DMS-114): 7.26 µM (inactive) | GI50 (KM-20L2): 24.2 µM (inactive) | GI50 (XF498): 22.8 µM (inactive)

CC1CCP(=O)(c2ccccc2)c2ccccc21 (stereo not drawn)
GI50 (DLD-1): 46.8 µM (inactive) | GI50 (LXFL 529): 43.6 µM (inactive) | GI50 (DMS-114): 38.4 µM (inactive) | GI50 (KM-20L2): > 100 µM (inactive) | GI50 (HOP-18): > 100 µM (inactive) | GI50 (XF498): < 0.01 µM (active) | GI50 (SNB-78): > 100 µM (inactive) | GI50 (M19-MEL): 24.4 µM (inactive)

CCC(=O)C1=C(OC(C)=O)C2Cc3c(n(C)c4ccccc34)C(C1)N2C (stereo not drawn)
GI50 (DLD-1): 23.8 µM (inactive) | GI50 (LXFL 529): 29 µM (inactive) | GI50 (RXF 631): 22.9 µM (inactive) | GI50 (DMS-114): 26.7 µM (inactive) | GI50 (KM-20L2): 35.9 µM (inactive) | GI50 (HOP-18): 25.4 µM (inactive) | GI50 (SNB-78): 22.3 µM (inactive) | GI50 (M19-MEL): 41.4 µM (inactive)

COc1cc2c(cc1OC)C(Cl)C(c1ccc(Br)cc1)=C2Cl (stereo not drawn)
GI50 (DLD-1): 12.7 µM (inactive) | GI50 (DMS-114): 9.06 µM (inactive) | GI50 (KM-20L2): 18.5 µM (inactive) | GI50 (HOP-18): 20.9 µM (inactive) | GI50 (SNB-78): 13.5 µM (inactive) | GI50 (M19-MEL): 16.4 µM (inactive)

From ChEMBL document CHEMBL1201862, “PubChem BioAssay data set” (2004)
